Structures are written as SMILES. Like-named read-outs stand apart in the source and are kept apart here. Numbered stars: 1 amine (or outer) side, 2 acyl side, 3 side chain; on linkers, the order of the positions; unused ones are H or OH. Square brackets hold non-standard residues; d marks the D form. Peptide text beside a SMILES is read from it. * marks the point of attachment. Doxorubicin(3'-N) = COc1cccc2c1C(=O)c1c(O)c3c(c(O)c1C2=O)C[C@@](O)(C(=O)CO)C[C@@H]3O[C@H]1C[C@H](N*)[C@H](O)[C@H](C)O1; Glutaryl = O=C(CCCC(=O)[*:2])[*:1]; Hyp = O=C(O)[C@@H]1C[C@@H](O)CN1; Chg = N[C@H](C(=O)O)C1CCCCC1; X1 = O=C(O)CCCNC(=O)CC(=O)*

One data set concerns LNCaP cells. Put plainly: cells. The conditions noted are these: for IC50: read-out: LNCaP IC50. As to the method:
(§1) Monolayer cultures of PSA-secreting LNCaP and non-PSA-secreting DU145 human prostate carcinoma cells were conducted in growth medium in a CO2 incubator under a humidified atmosphere at 37° C. for 3 weeks prior to initiating cytotoxicity experiments. During cell growth, media were changed every 3 days and trypsinization carried out at 80% confluence with a 1:4 split for subsequent cultures. Cells were grown on 96-well plates for 48 h at initial concentrations of 5000 cells/well. At the end of the 48-h period, the growth medium was replaced by serum-free medium RPMI 1640 medium containing L-glutamine (2 mM), 2% TCM, penicillin G (100 units/mL) and streptomycin sulfate (100 units/mL), and prodrugs added to wells at concentrations ranging from 0.07 to 100 μM. The plates were incubated at 37° C. for 72 h under a humidified CO2 atmosphere, and cell viability determined using the MTT assay. Briefly, 10 μL aliquots of a 12 mM MTT solution were added to wells and the plates incubated in a CO2 incubator under a humidified atmosphere at 37° C. for 4 h. Well contents were then solubilized with 1% SDS (100 μL/well) for 12 h, and OD570 values measured on a Dynatech MR5000 plate reader. Cell viability was computed as a percentage of control growth, and IC50 values determined as the concentration at which cell growth is inhibited by 50%.
(§2) To assess cytotoxicity and tumor selectivity, all prodrugs were incubated in cultured cell lines secreting (LNCaP) or lacking (DU145) PSA for a period of 72 h. Doxorubicin was used as a positive control and cell viability determined at the end of the incubation period using an MTT assay. It was anticipated that peptide prodrugs would be activated extracellularly in LNCaP, but not DU145 cells, by the proteolytic action of PSA releasing doxorubicin that would ultimately lead to cell death.

For another data set, the system named is tumor cells. The following applies: cited from earlier work.
Another data set has as its system DU145 cells. Put plainly: Prodrug cytotoxicity in non-PSA-secreting DU145 cells (MTT assay), selectivity. It counts as cell-based, human. The conditions noted are these: LNCaP versus non-PSA-secreting DU145 cells, 72 h. As to the method:
as §1, §2
Background: Tetrazolium assays rely on reduction of a dye to a coloured formazan, in cell work by metabolically active cells.

A further data set concerns the target human PSA (Homo sapiens, UniProt P07288). The data set is described as follows: Hydrolysis of doxorubicin prodrugs by PSA (PSA enzyme assay, LC-MS/MS prodrug disappearance). The following applies: for % of prodrug at 60 min: prodrug 1 μM incubated with human PSA 1 μM, 50 mM Tris buffer pH 8, 37° C.
Data set [1] concerns the target PSA (prostate-specific antigen) (Homo sapiens, UniProt P07288). The data set is described as above. The conditions noted are these: human, pH 8.
Experimental: (§3) For doxorubicin conjugates, peptide solution concentrations were determined by measuring the UV absorbance at 484 and 254 nm (20 μM for doxorubicin and 50 μM for phosphoramide mustard conjugates, respectively) of solutions prepared (based on weight) in water from 10 mM DMSO stock solutions. Using the extinction coefficients of doxorubicin at 484 nm (10,800 M-1·cm-1), peptide concentrations were calculated and adjusted accordingly to prepare 100 μM solutions in 50 mM Tris buffer, pH 8 containing 2 mM CaCl2 and 0.1% Tween 20. […] Peptide solutions were prepared in Tris buffer pH 8 at a concentration of 1.11 μM from 1 mM DMSO stock solutions, and warmed up to 37° C. Reactions were initiated at 37° C. with the addition of 5 μL aliquots of a 10 μM solution of human PSA to 45 μL aliquots of the 1.11 μM peptide solutions in eppendorf vials (total volume 50 μL, final PSA concentration 1 μM), and time points recorded over a period of 3 h. Reactions were terminated at 0, 10, 20, 30, 60, 120, 180 and 360 min by quenching 2 μL aliquots of incubates with 20 μL of chilled 50% ACN containing 0.1 μM internal standard (IS) and 0.1% formic acid (FA) pre-added to eppendorf vials. Samples were centrifuged at 3000 RPM for 15 min and the supernatants analyzed by LC-MS/MS in SRM mode as previously described. The fraction of prodrug remaining at each time point was calculated by dividing the prodrug/IS ratio by the 0-h prodrug/IS area ratio and half-life determined from prodrug disappearance rate.
(§4) Substrate disappearance was monitored by LC-MS/MS analysis using SRM. The percentage of prodrug remaining at any given time point was computed by taking the ratio of its peak area response and that of the 0-h time point.
[2] abbreviates: 72 h incubation, MTT assay, PSA-secreting LNCaP cells.

Chain of human PSA (P07288 25-261): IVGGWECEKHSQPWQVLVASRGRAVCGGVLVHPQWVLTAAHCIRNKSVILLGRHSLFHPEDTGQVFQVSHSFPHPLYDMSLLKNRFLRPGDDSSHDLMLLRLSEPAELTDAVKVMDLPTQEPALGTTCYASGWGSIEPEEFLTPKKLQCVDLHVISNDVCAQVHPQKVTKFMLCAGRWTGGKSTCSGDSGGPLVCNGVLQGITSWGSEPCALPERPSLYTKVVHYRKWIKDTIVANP
Chain of PSA (prostate-specific antigen) (P07288 25-261): as above
Experimental for human PSA: as §3, §4

The IC50 is the point on the concentration scale where inhibition reaches its midpoint. Turning to `COc1cccc2c1C(=O)c1c(O)c3c(c(O)c1C2=O)C[C@@](O)(C(=O)CO)C[C@@H]3O[C@H]1C[C@H](N)[C@H](O)[C@H](C)O1` [Dox, Doxorubicin], the IC50 in the data set with LNCaP cells (Homo sapiens, LNCaP, 72 h) was less than 70 nM. Also, the “times more potent than Leu-Doxorubicin at killing tumor cells” value with tumor cells was 10 times. Further, in the data set on DU145 cells, the “Selectivity against DU145” value came to 1.

On to `COc1cccc2c1C(=O)c1c(O)c3c(c(O)c1C2=O)C[C@@](O)(C(=O)CO)C[C@@H]3O[C@H]1C[C@H](NC(=O)[C@@H](N)CC(C)C)[C@H](O)[C@H](C)O1` [Leu-Doxorubicin], for which the “fold less cytotoxic (than doxorubicin)” value in the data set with tumor cells (Wong et al. (2001)) is reported as 10 fold.

Take `COc1cccc2c1C(=O)c1c(O)c3c(c(O)c1C2=O)C[C@@](O)(C(=O)CO)C[C@@H]3O[C@H]1C[C@H](NC(=O)[C@H](CC(C)C)NC(=O)[C@H](CO)NC(=O)[C@H](CCC(N)=O)NC(=O)[C@@H](NC(=O)[C@H](CO)NC(=O)[C@H](C)NC(=O)[C@@H]2C[C@@H](O)CN2C(=O)CCCC(=O)O)C2CCCCC2)[C@H](O)[C@H](C)O1` [Prodrug 1, Glutaryl-Hyp-Ala-Ser-Chg-Gln-Ser-Leu-Dox] (Glutaryl-[Hyp]AS[Chg]QSL-{Doxorubicin(3'-N)}): the IC50 in the data set on LNCaP cells (setting [2]) stood at 180 nM. On human PSA, the “% of prodrug at 60 min” value worked out at 13%. In the data set on DU145 cells, the “Selectivity against DU145” value turned out to be 560.

As to `COc1cccc2c1C(=O)c1c(O)c3c(c(O)c1C2=O)C[C@@](O)(C(=O)CO)C[C@@H]3O[C@H]1C[C@H](NC(=O)[C@H](CC(C)C)NC(=O)[C@H](CO)NC(=O)[C@H](CCC(N)=O)NC(=O)[C@@H](NC(=O)[C@H](CO)NC(=O)[C@H](C)NC(=O)[C@H](CO)NC(=O)CCCC(=O)O)C2CCCCC2)[C@H](O)[C@H](C)O1` [Prodrug 2, Glutaryl-Ser-Ala-Ser-Chg-Gln-Ser-Leu-Dox] (Glutaryl-SAS[Chg]QSL-{Doxorubicin(3'-N)}), the IC50 in the data set on LNCaP cells (setting [2]) was 270 nM. On human PSA, the “% of prodrug at 60 min” value was found to be 12%. In addition, in the data set with DU145 cells, the “Selectivity against DU145” value was determined as 370.

Broadly, the half-life is how long it takes for the measured level to halve. As to `COc1cccc2c1C(=O)c1c(O)c3c(c(O)c1C2=O)C[C@@](O)(C(=O)CO)C[C@@H]3O[C@H]1C[C@H](NC(=O)[C@H](CC(C)C)NC(=O)[C@H](CO)NC(=O)[C@H](CCC(N)=O)NC(=O)[C@@H](NC(=O)[C@H](CO)NC(=O)[C@H](C)NC(=O)CC(=O)NCCCC(=O)O)C2CCCCC2)[C@H](O)[C@H](C)O1` [Prodrug 3, GABA←mGly-Ala-Ser-Chg-Gln-Ser-Leu-Dox] (X1-AS[Chg]QSL-{Doxorubicin(3'-N)}), the “cytotoxicity against PSA-secreting LNCaP cells (in words)” value in the data set on LNCaP cells (72 h, MTT assay) is “most cytotoxic prodrug”. For the same molecule, in data set [1], the half-life at 1 μM is 22 min.

For the molecule `COc1cccc2c1C(=O)c1c(O)c3c(c(O)c1C2=O)C[C@@](O)(C(=O)COC(=O)C(C)(C)CONC(=O)[C@H](CCC(N)=O)NC(=O)[C@@H](NC(=O)[C@H](CO)NC(=O)[C@H](C)NC(=O)CC(=O)NCCCC(=O)O)C1CCCCC1)C[C@@H]3O[C@H]1C[C@H](N)[C@H](O)[C@H](C)O1` [Prodrug 4, GABA←mGly-Ala-Ser-Chg-Gln-NH—O—CH2—C(Me)2C(O)-14-O-Dox], in the data set on LNCaP cells (72 h, MTT assay), the “cytotoxicity against PSA-secreting LNCaP cells (in words)” value is “comparable to that of L-377,202”. The “cytotoxin released by the prodrug” value at human PSA (PSA-mediated hydrolysis, LC-MS with accurate mass (FIG. 10)) is on record as “free doxorubicin”. In addition, the half-life at 1 μM in data set [1] amounted to 67 min.

The record behind these values is patent publication US11628221B2, “Peptide linker and combination for prodrugs activated by prostate-specific antigen” (priority 2017, dated 2023).
